The text below walks through data of patent US20070179175A1, “Tetrahydronaphthyridine Derivative” (priority 2005, published 2007).

Test [1] addresses T1, human histamine H3 receptor (Homo sapiens, UniProt Q9Y5N1).
T1 construct: expressed in transfected cells; host or cells: HEK-293 cells expressing a CRE beta-lactamase reporter gene
Briefly: H3 cell based functional assay (cAMP, β-lactamase reporter gene). The method, then:
The compound was evaluated using a cell based functional assay measuring cAMP through β-lactamase reporter gene activity. A stable cell line was generated from HEK-293 cells expressing a CRE β-lactamase reporter gene and transfected with human histamine H3 receptor cDNA. Cells were seeded at a density of 500,000 cells/ml, and grown overnight in MEM (Invitrogen) supplemented with 1% dialysed FBS (Sigma), 2 mM glutamine (Sigma), 1 mM sodium pyruvate (Sigma), 0.1 mM non essential amino acids (Invitrogen) and 25 mM HEPES (Sigma) in poly D lysine coated 384 well plates (BD Biosciences). […] For IC50 determination, the test compound was prepared in PBS (Sigma) and DMSO (Sigma) at a dose response of 5×10^−10 to 5×10^−5 M with a final DMSO concentration in the assay of 0.5%. Cells were incubated for 15 minutes plus/minus compound and their ability to permit 10 μM forskolin-stimulated cAMP synthesis in the presence of 1 nM imetit was measured as described above.
In general terms: A reporter such as luciferase makes a cellular process visible.

The target of another test is T2, hERG channel (Homo sapiens, UniProt Q12809).
T2 construct: expressed in transfected cells
T2 sequence (Q12809 whole entry): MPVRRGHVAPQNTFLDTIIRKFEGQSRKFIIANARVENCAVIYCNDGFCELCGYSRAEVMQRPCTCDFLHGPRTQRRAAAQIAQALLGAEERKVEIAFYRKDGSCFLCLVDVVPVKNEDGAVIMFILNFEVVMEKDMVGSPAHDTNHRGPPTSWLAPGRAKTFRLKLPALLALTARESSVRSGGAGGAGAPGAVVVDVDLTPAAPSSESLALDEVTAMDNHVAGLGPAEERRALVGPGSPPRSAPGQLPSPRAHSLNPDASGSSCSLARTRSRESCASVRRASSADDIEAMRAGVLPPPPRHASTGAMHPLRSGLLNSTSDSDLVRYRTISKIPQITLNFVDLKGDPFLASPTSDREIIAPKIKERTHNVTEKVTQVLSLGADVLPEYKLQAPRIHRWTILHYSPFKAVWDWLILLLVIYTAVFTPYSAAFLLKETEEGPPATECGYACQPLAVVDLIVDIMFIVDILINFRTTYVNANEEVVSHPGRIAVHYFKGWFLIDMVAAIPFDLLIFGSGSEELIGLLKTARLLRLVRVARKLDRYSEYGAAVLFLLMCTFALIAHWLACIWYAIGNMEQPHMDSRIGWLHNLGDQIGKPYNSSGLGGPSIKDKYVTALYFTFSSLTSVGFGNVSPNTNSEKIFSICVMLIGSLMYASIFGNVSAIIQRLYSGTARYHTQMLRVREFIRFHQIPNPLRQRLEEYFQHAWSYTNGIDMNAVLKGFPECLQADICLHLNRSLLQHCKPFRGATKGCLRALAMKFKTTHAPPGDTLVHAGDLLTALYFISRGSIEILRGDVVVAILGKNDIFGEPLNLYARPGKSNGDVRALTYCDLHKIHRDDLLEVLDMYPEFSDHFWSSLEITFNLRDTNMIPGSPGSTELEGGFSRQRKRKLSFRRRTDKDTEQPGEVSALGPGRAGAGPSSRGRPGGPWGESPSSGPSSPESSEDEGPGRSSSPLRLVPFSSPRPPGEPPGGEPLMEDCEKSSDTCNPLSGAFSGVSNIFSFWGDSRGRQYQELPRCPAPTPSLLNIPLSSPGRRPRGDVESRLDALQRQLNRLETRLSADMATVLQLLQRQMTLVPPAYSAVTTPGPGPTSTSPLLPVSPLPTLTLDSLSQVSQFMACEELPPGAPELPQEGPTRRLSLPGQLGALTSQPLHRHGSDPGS
As to the kind of experiment: hERG patch clamp assay. It is filed as cell-based. The settings on record: HEK293 cells stably expressing hERG; whole-cell patch clamp, 26.5-28.5° C. The method, then:
To determine the potential of compounds to inhibit the hERG channel, the cloned counterpart of the […] delayed rectifier potassium current (IKr), HEK293 cells stably expressing the hERG channel were used in whole-cell patch clamp electrophysiology studies at ambient temperature (26.5-28.5° C.). The methodology for stable transfection of this channel in HEK293 cells can be found elsewhere (Zhou et al 1998, Biophysical Journal, 74, pp 230-241). The solutions used for experimentation were standard extracellular solution of the following composition (mM); NaCl, 137; KCl, 4; CaCl2, 1.8; MgCl2, 1; Glucose, 10; HEPES, 10; pH 7.4±0.05 with NaOH/HCl; and standard intracellular solution of the following composition (mM); KCl 130; MgCl2, 1; HEPES, 10; EGTA, 5; MgATP, 5; pH 7.2±0.05 with KOH. The voltage protocol applied was designed to activate the hERG channel and allow the measurement of drug block of the channel and is as follows. First the membrane potential was stepped from a holding potential of −80 mV to +30 mV for 1s. This was followed by a descending voltage ramp at a rate of 0.5 mV/ms back to holding potential of −80 mV and the peak outward current observed during the repolarizing ramp was measured. This protocol was evoked repeatedly every 4 seconds (0.25 Hz). […]

T1 sequence (Q9Y5N1 whole entry): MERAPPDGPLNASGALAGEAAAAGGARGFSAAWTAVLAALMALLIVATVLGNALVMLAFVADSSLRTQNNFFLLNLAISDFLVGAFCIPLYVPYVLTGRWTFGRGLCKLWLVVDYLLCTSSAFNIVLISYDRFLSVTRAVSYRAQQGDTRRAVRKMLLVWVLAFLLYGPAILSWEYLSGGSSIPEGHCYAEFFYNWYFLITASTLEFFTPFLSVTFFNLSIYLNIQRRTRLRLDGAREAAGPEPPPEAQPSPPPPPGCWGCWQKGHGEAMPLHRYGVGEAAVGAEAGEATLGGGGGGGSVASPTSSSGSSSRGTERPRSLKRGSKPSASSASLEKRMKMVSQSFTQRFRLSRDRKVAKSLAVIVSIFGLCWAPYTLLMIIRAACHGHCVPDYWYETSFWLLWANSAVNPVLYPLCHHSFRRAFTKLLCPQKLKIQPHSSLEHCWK

As for `N=C(N)SCCc1cnc[nH]1` [imetit, reference compound], in test [1], a half-maximal response (EC50) required 0.35 nM. This counts as sub-nanomolar.

Compound `CC(C)N1CCC(Oc2ccc3c(n2)CCN(c2ccc(C(N)=O)cn2)C3)CC1` [Example 1, 6-[2-(1-Isopropyl-piperidin-4-yloxy)-7,8-dihydro-5H-[1,6]naphthyridin-6-yl]-nicotinamide] registered a half-inhibitory concentration (IC50) against hERG channel of 22200 nM. The Ki in test [1] (HEK-293 CRE β-lactamase cells, antagonism of 1 nM imetit, 10 μM forskolin, Ki calculated from IC50 by the Cheng-Prussoff equation) was 2.6 nM.

As usually defined, the EC50 is the concentration that produces a half-maximal response. A word on the IC50: it is the concentration needed to halve the response being measured. Low readings indicate inhibition by little substance, high ones a need for much substance. By Ki is commonly meant the dissociation constant of the complex between target and ligand, obtained from inhibition or displacement.
